For series [1] the following is noted: cited from earlier work.
For series [2] the following is noted: cited from earlier work. This is another data set of the same source.
The conditions of series [3]: oral; % of the ingested/administered dose; cited from earlier work.
Series [4] is described as follows: Time to onset of calming / sedative / sleep-inducing effect. Format: in vivo. The settings on record: hydro-alcoholic solution of the invention via the oral mucous membrane.
Another series has as its system plasma proteins. The settings on record: cited from earlier work; for bonded to plasma proteins: in the blood stream.
A short description of series [5]: Bioavailability after oral administration. Format: in vivo.
The conditions of series [6]: administered orally, doses of 5 mg or 10 mg; cited from earlier work.
Series [7] is described as follows: Stability in alcohol solution. The settings on record: degree of alcohol starting from 35°. Type of series: physicochemical. The method, then: In the studies, the doses normally administered orally, at bedtime, varied over the range 0.3 mg to 5 mg. High doses of Melatonin may exert a negative paradoxical action that propagates to phases that are not phases of responding to Melatonin.

In brackets after ≈: the same amount, converted by molar mass. Counter-ions that a name gives are not always drawn. A value given as a limit tells only on which side of the number the result lay.

With `CN(C)CCOC(C)(c1ccccc1)c1ccccn1` (stereo not shown) [Doxylamine], the “solubility in ethanol, in words” value in series [1] (ethanol) is reported as “easily soluble in ethanol”. Besides, in series [2] (in vivo), the “half-life in the organism” value is on record as “around 3.5 h”. In series [3], the “bioavailability when taken orally” value is 24.7%. In addition, the “time until calming effect / drowsiness appears, in words” value in series [4] is listed as “within a few minutes”.
On to `CN1CCN(C(=O)OC2c3nccnc3C(=O)N2c2ccc(Cl)cn2)CC1` (stereo not shown) [Zopiclone], for which the “solubility in water and in ethanol/alcohol, in words” value in series [1] is “not very soluble in water and alcohol”.
As to `Cc1ncc2n1-c1ccc(Cl)cc1C(c1ccccc1F)=NC2` [Midazolam], the “solubility in ethanol, in words” value in series [1] (ethanol) is recorded as “freely soluble in ethanol”. Besides, the solubility in water in series [1] (water) is 0.024 mg/mL (≈ 0.0737 mM). The “bonding to plasma proteins, in words” value in the series on plasma proteins is “bonds strongly to plasma proteins”. In series [3], the “bioavailability when taken orally” value was 36%.
Take `CN1CCC(=C2c3ccccc3C=Cc3ccccc32)CC1` [Cyproheptadine]: the “half-life, compared in words” value in series [2] (compared with Doxylamine) was “longer than the half-life of Doxylamine”. The “bioavailability when taken orally” value in series [3] is on record as ~25%.
For `COc1ccc2cccc(CCNC(C)=O)c2c1` [Agomelatine], the “half-life in the organism” value in series [2] (in vivo) is given as “less than 2 h”. In addition, the “fraction of the orally administered dose destroyed / lost” value in series [5] is given as 95%. In addition, the “bioavailability when taken orally” value in series [3] is given as “less than 5%”.
For the compound “(S)—N-(2-(1,6,7,8-tetrahydro-2H-indeno-(5,4)furan-8-yl)ethyl)propionamide [Ramelteon]”, the “solubility in ethanol, in words” value in series [1] (ethanol) was “very easily soluble in ethanol”. Also, the “bonded to plasma proteins” value in the series on plasma proteins is on record as 82%. The “fraction of the orally administered dose destroyed / lost” value in series [5] is 98.2%. For the same compound, the “bioavailability when taken orally” value in series [3] is reported as 1.8%.
With `Cc1ccc(-c2nc3ccc(C)cn3c2CC(=O)N(C)C)cc1` [Zolpidem], in series [1] (ethanol), the solubility in ethanol was 50 mg/mL (≈ 163 mM) and the “solubility in ethanol, in words” value is recorded as “quite soluble in ethanol”. Also, the “half-life in the organism” value in series [2] (in vivo) is 2 to 3 h. In addition, the “bonded to plasma proteins” value in the series on plasma proteins is reported as 92%. Moreover, the “time until effect is perceptible” value in series [6] is listed as “at least 15 min”. The “bioavailability when taken orally” value in series [3] was ≤ 70%. The “time until calming effect / drowsiness appears, in words” value in series [4] was “within only a few minutes”.
For the compound `CN1CCN(C(=O)O[C@H]2c3nccnc3C(=O)N2c2ccc(Cl)cn2)CC1` [Eszopiclone], the “half-life in the organism” value in series [2] (in vivo) is 6 h. In the series with plasma proteins, the “bonded to plasma proteins” value is given as 60%.
`Cc1nnc2n1-c1sc(Br)cc1C(c1ccccc1Cl)=NC2` [Brotizolam]: in series [2] (in vivo), the “half-life in the organism” value is reported as 4.4 h. Also, in series [3], the “bioavailability when taken orally” value is on record as “around 50%”.
Regarding `Cc1ccc(-c2nc3ccc(C)cn3c2CC(=O)N(C)C)cc1` [Zolpidem tartrate], the “solubility in water and in ethanol/alcohol, in words” value in series [1] was “less soluble in water and in ethanol than Zolpidem base”.
Regarding `COc1ccc2[nH]cc(CCNC(C)=O)c2c1` [Melatonin, N-Acetyl-5-Methoxytryptamine], in series [1] (ethanol), the “solubility in ethanol, in words” value is “very soluble in ethanol”. Besides, the half-life entry in series [2] (in vivo) is listed as “greater than 50 min”. For the same compound, the “bioavailability when taken orally” value in series [3] is ~15%. Besides, the “stability in alcohol solution” value in series [7] is given as “increases with increasing degree of alcohol”.

The values above are taken from patent US20150352038A1, “A DOSAGE FORM FOR ADMINISTERING AN ACTIVE PRINCIPLE FOR ACCELERATED SLEEP INDUCTION AND/OR FOR TREATING SLEEP DISORDERS AND/OR FOR TREATING A CENTRAL NERVOUS SYSTEM DISORDER” (priority 2013, published 2015).
